Source: US8093273B2, “Flavanoids and isoflavanoids for the prevention and treatment of cardiovascular diseases” (Resverlogix Corp., priority 2004, dated 2012)
Read-outs that look alike come from different tables or passages of the source.

Tests used:
Caco-2 permeability = format: in vitro ADME, human; settings: human, Caco-2
Source text: The Caco-2 cell drug transport model is widely used for screening compounds in drug discovery to assess intestinal transport and predict absorption rates.

hApoA-I transgenic mice = assay: hApoA-I transgenic mice, oral gavage for 14 days; format: in vivo; settings: Mus musculus, po, 336 h, relative to pretreatment, read-out: ApoA-I (% change); for change in vivo at 10 mg/kg: 10 mg/kg BID 14 days
How it was run: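 Male hApoA-I transgenic mice (7–8 weeks) dosed orally by gavage daily for 14 days, BID or SID, as suspensions at 5 mL/kg in 0.5% methylcellulose/1% Tween 80 or F-101; fenofibrate 100 mg/kg as positive control. After a 4 h fast on day 15, plasma ApoA-I, HDL-C, total cholesterol and triglycerides measured relative to pre-bleed-matched groups.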

human ApoA-I promoter = assay: ApoA-I promoter induction in HepG2 liver cells (pAI.474-Luc luciferase reporter); format: cell-based; settings: average values at 15 μM, 48 hours incubation
Method: This study determined whether compounds of the invention have an effect on ApoA-I promoter activity expression in HepG2 cells, a liver cell line. Cells were grown under conditions recommended by the ATCC and summarized by Wong.
The promoter region of the gene encoding human ApoA-I was isolated and ligated upstream the structure gene of firefly luciferase to construct a reporter plasmid (pAI.474-Luc). The reporter plasmid, along with pRSV-β-galactosidase (as a control for transfection efficiency), were co-transfected into HepG2 cells. The cells were then incubated in an MEM selection media containing 20% fetal calf serum supplemented with G418 (final concentration: 0.5 mg/mL, Gibco) to give established strains that stably express from the reporter gene. The strains were seeded to a 6-well culture plates and incubated for 48 hours at 37° C. under 5% carbon dioxide. Cells were starved for 24 hrs in MEM selection media containing 0.5% FBS. Then, a solution of the compounds of the invention in DMSO (or other appropriate solvent) was added to the wells at a final concentration of 0 to 100 μM in MEM selection media containing 0.5% FBS.
After further incubation for 48 hours, the cells were harvested and lysed using Reporter Lysis Buffer (PROMEGA E3971), and 50 μL of luciferase assay reagent (PROMEGA E4550 Luciferase Reporter 1000 assay system) were added to measure luciferase activity with a luminometer (Fluoroskan Ascent FL from Thermo electron Corporation). Luciferase activity was normalized to lysate protein concentrations, measured using Bradford Reagent (Biorad Protein Assay reagent Cat #500-0006).

Q: What does the source list for `O=c1cc(-c2ccc(O)cc2)oc2ncccc12` [Example 34, 2-(4-Hydroxy-phenyl)-pyrano[2,3-b]pyridin-4-one]?
A: Papp (Caco-2 permeability): 6.36 ×10⁻⁶ cm/s; change in vivo at 3 mg/kg (hApoA-I transgenic mice; Table 6 first group, 3 mg/kg BID 14 days, Control 1 (0.5% MC & 1% Tween 80) 11.94): 18.9%; change in vivo at 10 mg/kg (hApoA-I transgenic mice; Table 6 first group, Control 1 11.94): 36.6%; change in vivo at 30 mg/kg (hApoA-I transgenic mice; Table 6 first group, 30 mg/kg BID 14 days, Control 1 11.94): 47.5%; change in vivo at 10 mg/kg (hApoA-I transgenic mice; Table 6 third group, Control 3 (F-101) (6.32)): 30.9%; ApoA-I Promoter Induction (human ApoA-I promoter): increased
